Consider 34 compounds from US20090264401A1, “SUBSTITUTED PYRIMIDIN-5-CARBOXAMIDES 281” (AstraZeneca AB, priority 2008, published 2009).

The target of this test is T1, human 11βHSD1 enzyme (Homo sapiens, UniProt P28845).
T1 construct: baculovirus expressed N terminal 6-His tagged full length human 11βHSD1 enzyme; 6-His (N); made in house
T1 sequence (P28845 whole entry): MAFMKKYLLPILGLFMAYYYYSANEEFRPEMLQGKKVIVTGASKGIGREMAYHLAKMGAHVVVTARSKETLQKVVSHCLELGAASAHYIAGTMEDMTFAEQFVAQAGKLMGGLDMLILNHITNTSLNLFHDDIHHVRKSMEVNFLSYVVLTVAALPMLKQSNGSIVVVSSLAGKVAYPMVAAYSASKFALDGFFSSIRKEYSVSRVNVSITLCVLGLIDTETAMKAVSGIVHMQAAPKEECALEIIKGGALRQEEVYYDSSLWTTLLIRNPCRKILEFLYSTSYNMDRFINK
The test can be described thus: 11βHSD1 cortisone to cortisol conversion, competitive HTRF assay. In kind it is biochemical. To be noted: human 11-βHSD; test concentration of 30 μM of compound. The gist of the method:
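Enzyme was baculovirus-expressed, N-terminal 6-His-tagged full-length human 11βHSD1, purified on a copper chelate column. Compounds were added in buffer containing 1% DMSO at 10-fold final concentration.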
For orientation: TR-FRET usually uses a lanthanide donor and a delayed reading to cut background.
In the case of `CC(C)c1ncc(C(=O)N[C@H]2C3CC4CC2C[C@@](O)(C4)C3)c(C2CCCC2)n1` [Example 150, 4-Cyclopentyl-N-[(2r,5s)-5-hydroxyadamantan-2-yl]-2-propan-2-ylpyrimidine-5-carboxamide], the inhibition (usually the drop in the measured response relative to a control, in per cent) at 30 µM came out at 96%.
On to `NC1(c2ncc(C(=O)N[C@H]3C4CC5CC3C[C@@](O)(C5)C4)c(C3CCCC3)n2)CC1` [Example 151, 2-(1-Aminocyclopropyl)-4-cyclopentyl-N-[(2r,5s)-5-hydroxyadamantan-2-yl]pyrimidine-5-carboxamide], for which the inhibition at 30 µM stood at 101%.
With `NCc1ncc(C(=O)N[C@H]2C3CC4CC2C[C@@](O)(C4)C3)c(C2CCCC2)n1` [Example 152, 2-(Aminomethyl)-4-cyclopentyl-N-[(2r,5s)-5-hydroxyadamantan-2-yl]pyrimidine-5-carboxamide], the inhibition at 30 µM is 97.8%.
As for `Cc1ncc(C(=O)N[C@H]2C3CC4CC2C[C@@](O)(C4)C3)c(C2CC(F)(F)C2)n1` [Example 153, 4-(3,3-difluorocyclobutyl)-N-[(2s,5r)-5-hydroxyadamantan-2-yl]-2-methylpyrimidine-5-carboxamide], the inhibition at 30 µM was found to be 91.7%.
In the case of `CNc1ncc(C(=O)N[C@H]2C3CC4CC2C[C@@](O)(C4)C3)c(C2CC(F)(F)C2)n1` [Example 154, 4-(3,3-difluorocyclobutyl)-N-[(2r,5s)-5-hydroxyadamantan-2-yl]-2-methylaminopyrimidine-5-carboxamide], the inhibition at 30 µM is 88%.
For `O=C(N[C@H]1C2CC3CC1C[C@@](O)(C3)C2)c1cnc(NC2CC2)nc1C1CC(F)(F)C1` [Example 155, 2-(cyclopropylamino)-4-(3,3-difluorocyclobutyl)-N-[(2r,5s)-5-hydroxyadamantan-2-yl]pyrimidine-5-carboxamide], the inhibition at 30 µM stood at 92.6%.
As to `C[C@@H]1CN(c2ncc(C(=O)N[C@H]3C4CC5CC3C[C@@](O)(C5)C4)c(C3CC(F)(F)C3)n2)C[C@H](C)O1` [Example 156, 4-(3,3-difluorocyclobutyl)-2-[(2S,6R)-2,6-dimethylmorpholin-4-yl]-N-[(2r,5s)-5-hydroxyadamantan-2-yl]pyrimidine-5-carboxamide], the inhibition at 30 µM turned out to be 65.5%.
Take `O=C(N[C@H]1C2CC3CC1C[C@@](O)(C3)C2)c1cnc(OC2CCC2)nc1C1CC(F)(F)C1` [Example 157]: the inhibition at 30 µM came to 87.1%.
To `Cc1ncc(C(=O)N[C@H]2C3CC4CC2C[C@@](O)(C4)C3)c(C2CCCO2)n1` (stereo partly shown) [Example 158, N-[(2r,5s)-5-hydroxyadamantan-2-yl]-2-methyl-4-(oxolan-2-yl)pyrimidine-5-carboxamide] belongs 96.5%.
Take `CC(C)Nc1ncc(C(=O)N[C@H]2C3CC4CC2C[C@@](O)(C4)C3)c(C2CCCO2)n1` (stereo partly shown) [Example 159, N-[(2r,5s)-5-hydroxyadamantan-2-yl]-4-(oxolan-2-yl)-2-(propan-2-ylamino)pyrimidine-5-carboxamide]: the inhibition at 30 µM was 98.2%.
`O=C(N[C@H]1C2CC3CC1C[C@@](O)(C3)C2)c1cnc(NC2CC2)nc1C1CCCO1` (stereo partly shown) [Example 160, 2-(cyclopropylamino)-N-[(2r,5s)-5-hydroxyadamantan-2-yl]-4-(oxolan-2-yl)pyrimidine-5-carboxamide]: the inhibition at 30 µM was determined as 104%.
Regarding `CNc1ncc(C(=O)N[C@H]2C3CC4CC2C[C@@](O)(C4)C3)c(C2CCCO2)n1` (stereo partly shown) [Example 161, N-[(2r,5s)-5-hydroxyadamantan-2-yl]-2-methylamino-4-(oxolan-2-yl)pyrimidine-5-carboxamide], the inhibition at 30 µM is 105%.
Turning to `O=C(N[C@H]1C2CC3CC1C[C@@](O)(C3)C2)c1cnc(NC2CCC2)nc1C1CCCO1` (stereo partly shown) [Example 162, 2-(cyclobutylamino)-N-[(2r,5s)-5-hydroxyadamantan-2-yl]-4-(oxolan-2-yl)pyrimidine-5-carboxamide], the inhibition at 30 µM was found to be 97.7%.
Take `O=C(N[C@H]1C2CC3CC1C[C@@](O)(C3)C2)c1cnc(NC2COC2)nc1C1CCCO1` (stereo partly shown) [Example 164, N-[(2r,5s)-5-hydroxyadamantan-2-yl]-2-(oxetan-3-ylamino)-4-(oxolan-2-yl)pyrimidine-5-carboxamide]: the inhibition at 30 µM was 98.9%.
On to `CC(C)Oc1ncc(C(=O)N[C@H]2C3CC4CC2C[C@@](O)(C4)C3)c(C2CCCO2)n1` (stereo partly shown) [Example 165], for which the inhibition at 30 µM came out at 105%.
Turning to `CSc1ncc(C(=O)N[C@H]2C3CC4CC2C[C@@](O)(C4)C3)c([C@H]2CCCO2)n1` [Example 166, N-[(2r,5s)-5-hydroxyadamantan-2-yl]-2-methylsulfanyl-4-[(2R)-oxolan-2-yl]pyrimidine-5-carboxamide], the inhibition at 30 µM worked out at 102%.
With `CNc1ncc(C(=O)N[C@H]2C3CC4CC2C[C@@](O)(C4)C3)c([C@H]2CCCO2)n1` [Example 167, N-[(2r,5s)-5-hydroxyadamantan-2-yl]-2-methylamino-4-[(2R)-oxolan-2-yl]pyrimidine-5-carboxamide], the inhibition at 30 µM came out at 101%.
As for `O=C(N[C@H]1C2CC3CC1C[C@@](O)(C3)C2)c1cnc(NC2CC2)nc1[C@H]1CCCO1` [Example 170, 2-(cyclopropylamino)-N-[(2r,5s)-5-hydroxyadamantan-2-yl]-4-[(2R)-oxolan-2-yl]pyrimidine-5-carboxamide], the figure is 94.4%; as for `CC(C)Nc1ncc(C(=O)N[C@H]2C3CC4CC2C[C@@](O)(C4)C3)c([C@H]2CCCO2)n1` [Example 171, N-[(2r,5s)-5-hydroxyadamantan-2-yl]-4-[(2R)-oxolan-2-yl]-2-(propan-2-ylamino)pyrimidine-5-carboxamide], 103%; as for `C[C@@H]1CN(c2ncc(C(=O)N[C@H]3C4CC5CC3C[C@@](O)(C5)C4)c([C@H]3CCCO3)n2)C[C@H](C)N1` [Example 172, 2-[(3S,5R)-3,5-dimethylpiperazin-1-yl]-N-[(2r,5s)-5-hydroxyadamantan-2-yl]-4-[(2R)-oxolan-2-yl]pyrimidine-5-carboxamide], 97.2%.
On to `O=C(N[C@H]1C2CC3CC1C[C@@](O)(C3)C2)c1cnc(NC2COC2)nc1[C@H]1CCCO1` [Example 173, N-[(2r,5s)-5-hydroxyadamantan-2-yl]-2-(oxetan-3-ylamino)-4-[(2R)-oxolan-2-yl]pyrimidine-5-carboxamide], for which the inhibition at 30 µM stood at 101%.
As for `O=C(N[C@H]1C2CC3CC1C[C@@](O)(C3)C2)c1cnc(NC2CCOCC2)nc1[C@H]1CCCO1` [Example 174, N-[(2r,5s)-5-hydroxyadamantan-2-yl]-2-(oxan-4-ylamino)-4-[(2R)-oxolan-2-yl]pyrimidine-5-carboxamide], the inhibition at 30 µM is 95%.
In the case of `O=C(N[C@H]1C2CC3CC1C[C@@](O)(C3)C2)c1cnc(NC2CCC2)nc1[C@H]1CCCO1` [Example 175, 2-(cyclobutaylamino)-N-[(2r,5s)-5-hydroxyadamantan-2-yl]-4-[(2R)-oxolan-2-yl]pyrimidine-5-carboxamide], the inhibition at 30 µM was determined as 103%.
Regarding `CC(C)Oc1ncc(C(=O)N[C@H]2C3CC4CC2C[C@@](O)(C4)C3)c([C@H]2CCCO2)n1` [Example 176], the inhibition at 30 µM was 97.9%.
With `CSc1ncc(C(=O)N[C@H]2C3CC4CC2C[C@@](O)(C4)C3)c([C@@H]2CCCO2)n1` [Example 177, N-[(2r,5s)-5-hydroxyadamantan-2-yl]-2-methylsulfanyl-4-[(2S)-oxolan-2-yl]pyrimidine-5-carboxamide], the inhibition at 30 µM turned out to be 95.8%.
Turning to `CNc1ncc(C(=O)N[C@H]2C3CC4CC2C[C@@](O)(C4)C3)c([C@@H]2CCCO2)n1` [Example 178, N-[(2r,5s)-5-hydroxyadamantan-2-yl]-2-methylamino-4-[(2S)-oxolan-2-yl]pyrimidine-5-carboxamide], the inhibition at 30 µM was found to be 95.3%.
`CC(C)Nc1ncc(C(=O)N[C@H]2C3CC4CC2C[C@@](O)(C4)C3)c([C@@H]2CCCO2)n1` [Example 179, N-[(2r,5s)-5-hydroxyadamantan-2-yl]-4-[(2S)-oxolan-2-yl]-2-(propan-2-ylamino)pyrimidine-5-carboxamide]: the inhibition at 30 µM worked out at 95.1%.
Take `O=C(N[C@H]1C2CC3CC1C[C@@](O)(C3)C2)c1cnc(NC2CC2)nc1[C@@H]1CCCO1` [Example 180, 2-(cyclopropylamino)-N-[(2r,5s)-5-hydroxyadamantan-2-yl]-4-[(2S)-oxolan-2-yl]pyrimidine-5-carboxamide]: the inhibition at 30 µM is 98.8%.
As for `CC(C)Oc1ncc(C(=O)N[C@H]2C3CC4CC2C[C@@](O)(C4)C3)c([C@@H]2CCCO2)n1` [Example 181], the figure is 95%; as for `Cc1ncc(C(=O)N[C@H]2C3CC4CC2C[C@@](O)(C4)C3)c(C2CCC(F)(F)C2)n1` (stereo partly shown) [Example 184, 4-(3,3-Difluorocyclopentyl)-N-[(2r,5s)-5-hydroxyadamantan-2-yl]-2-methylpyrimidine-5-carboxamide], 108%; as for `COc1ncc(C(=O)NC2C3CC4CC2CC(O)(C4)C3)c(C2(C)CC2)n1` (stereo not shown) [Example 187, N-[(2r,5 s)-5-hydroxyadamantan-2-yl]-2-methoxy-4-(1-methylcyclopropyl)pyrimidine-5-carboxamide], 99%.
Regarding `Cc1ncc(C(=O)N[C@H]2C3CC4CC2C[C@@](O)(C4)C3)c(-c2ccccc2Cl)n1` [Example 189, 4-(2-Chlorophenyl)-N-[(2r,5s)-5-hydroxyadamantan-2-yl]-2-methylpyrimidine-5-carboxamide], the inhibition at 30 µM is 95.5%.
Consider `Cc1ncc(C(=O)N[C@H]2C3CC4CC2C[C@@](O)(C4)C3)c(CC(C)(C)C)n1` [Example 193, 4-(2,2-Dimethylpropyl)-N-[(2r,5s)-5-hydroxyadamantan-2-yl]-2-methylpyrimidine-5-carboxamide], for which the inhibition at 30 µM was 102%.
To `CSc1ncc(C(=O)N[C@H]2C3CC4CC2C[C@@](O)(C4)C3)c(C2CCCCC2)n1` [Example 195, 4-Cyclohexyl-N-[(2r,5 s)-5-hydroxyadamantan-2-yl]-2-(methylthio)pyrimidine-5-carboxamide] belongs 103%.
